This note sets out measurements from ChEMBL document CHEMBL1157225, “Highly N-methylated linear peptides produced by an atypical sponge-derived Acremonium sp” (2006).

The term MIC denotes the lowest concentration that inhibits growth of the organism.

Assay [1] has as its system Staphylococcus epidermidis. In words: Antimicrobial activity against Staphylococcus epidermidis. Type of assay: functional.
Another assay relates to L1210. Nature of the assay: Cytotoxicity against mouse L1210 cells relative to efrapeptin G. Type of assay: functional.
The mark [2] stands for this setting: Staphylococcus epidermidis, read-out: MIC.

The structures appear in SMILES notation. Converted amounts (≈) assume the structure as drawn. Where a SMILES comes first, the peptide text is derived from it. [ ]: non-standard residue; d: D form. The star is where a group is joined. X1 = CC(C)C[C@@H](C[N+]1=C2CCCN2CCC1)N*; Pip = O=C(O)[C@@H]1CCCCN1; Iva = CC[C@](C)(N)C(=O)O; Aib = CC(C)(N)C(=O)O; βAla = NCCC(=O)O

For `CC[C@](C)(NC(=O)[C@H](CC(C)C)NC(=O)[C@H](C)NC(=O)C(C)(C)NC(=O)[C@@H]1CCCCN1C(=O)C(C)(C)NC(=O)C(C)(C)NC(=O)CNC(=O)CCNC(=O)[C@H](CC(C)C)NC(=O)C(C)(C)NC(=O)[C@](C)(CC)NC(=O)[C@@H]1CCCCN1C(=O)C(C)(C)NC(=O)[C@@H]1CCCCN1C(C)=O)C(=O)N[C@@H](CC(C)C)C[N+]1=C2CCCN2CCC1` [EFRAPEPTIN G] (Ac-[Pip][Aib][Pip][Iva][Aib]L[βAla]G[Aib][Aib][Pip][Aib]AL[Iva]-X1), in assay [1] (setting [2]), the MIC was 80 µg/mL. In the assay with L1210, this compound showed an Activity of 3300.

`CN[C@H](CC(C)C)C(=O)N[C@H]1C(=O)N[C@@H](CC(N)=O)C(=O)N[C@H]2C(=O)N[C@H]3C(=O)N[C@H](C(=O)N[C@H](C(=O)O)c4cc(O)cc(O)c4-c4cc3ccc4O)[C@H](O)c3ccc(c(Cl)c3)Oc3cc2cc(c3O[C@@H]2O[C@H](CO)[C@@H](O)[C@H](O)[C@H]2O[C@H]2C[C@](C)(N)[C@H](O)[C@H](C)O2)Oc2ccc(cc2Cl)[C@H]1O` [VANCOMYCIN]: in assay [1] (setting [2]), the MIC stood at 0.63 µg/mL (≈ 0.435 µM).

As to `CC[C@H](C)[C@H](NC(=O)[C@H](CC(C)C)N(C)C(=O)[C@@H](NC(=O)[C@@H](CCC(N)=O)NC(C)=O)[C@@H](C)CC)C(=O)N(C)[C@H](C(=O)N(C)[C@H](C(=O)N(C)[C@H](C(=O)N(C)[C@H](C(=O)O)[C@@H](C)CC)[C@@H](C)CC)[C@@H](C)CC)C(C)C`, the MIC in assay [1] turned out to be 50 µg/mL (≈ 48.2 µM); in assay [1] (setting [2]), 25 µg/mL (≈ 24.1 µM).

`CC[C@H](C)[C@H](NC(=O)[C@H](C(C)C)N(C)C(=O)[C@H](CC(C)C)N(C)C(=O)[C@@H](NC(=O)[C@@H](CCC(N)=O)NC(C)=O)C(C)C)C(=O)N(C)[C@H](C(=O)N(C)[C@H](C(=O)N(C)[C@H](C(=O)O)[C@@H](C)CC)[C@@H](C)CC)[C@@H](C)CC`: the MIC in assay [1] (setting [2]) was over 400 µg/mL. In addition, the Activity with L1210 came out at 1.
